The text below walks through data of patent US7888380B2, “1,2,4-Triazolylaminoaryl (heteroaryl) sulfonamide derivatives” (Janssen Pharmaceutica, N.V., priority 2004, dated 2011).

Like-named read-outs stand apart in the source and are kept apart here. Bounds are passed on as bounds.

In one assay the target is T1, CDK1:Cyclin-B (Homo sapiens, UniProt P06493).
T1 construct: purchased New England Biolabs, Beverly, Mass; 6020; host or cells: insect cells
The experiment in a line: CDK1 Screening Assay (33P-ATP FlashPlate). It is filed as biochemical. As to conditions: 10 μM ATP; >10 or >100 = less than 50% inhibition at highest concentration tested. As for the experimental part:
A kinase reaction mixture was prepared containing 50 mM Tris-HCl pH=8, 10 mM MgCl2, 0.1 mM Na3PO4, 1 mM DTT, 10 μM ATP, 0.025 μM biotinylated histone-H1 peptide substrate and 0.2 μCuries per well ^33P-γ-ATP (2000-3000 Ci/mmol). 70 μL of the kinase reaction mixture was dispensed into each well of a streptavidin coated FlashPlate™ (Cat. # SMP103, NEN, Boston, Mass.). Then 1 μL of test compound stock in 100% DMSO was added to the wells resulting in a final concentration of 1% DMSO in the reaction with a 100 μl final reaction volume.
Next, CDK1:Cyclin-B protein was diluted in 50 mM Tris-HCl pH=8.0, 0.1% BSA at a concentration of 1 ng per μL and 30 μL (30 ng enzyme per test well) was added to each well to initiate the reaction. The reaction was incubated for one hour at 30° C. At the end of the 1 h incubation, the reaction was terminated by aspirating the mixture from the plate and washing the wells twice with PBS containing 100 mM EDTA. The histone-H1 biotinylated peptide substrate became immobilized on the Flashplate™ and the incorporation of ^33P-γ-ATP was measured by reading the plate on a scintillation counter. Inhibition of the enzymatic activity of CDK1 was measured by observing a reduced amount of ^33P-γ-ATP incorporated into the immobilized peptide.
(§1) VEGF-R (vascular endothelial growth factor receptor-2) is a fusion protein containing a polyhistidine tag at the N-terminus followed by amino acids 786-1343 of the rat VEGF-R2 kinase domain (GenBank Accession #U93306). CDK1 (cyclin dependent kinase 1) was isolated from insect cells expressing both the human CDK1 catalytic subunit and its positive regulatory subunit cyclin B (New England Biolabs, Beverly, Mass., Cat. # 6020). CDK2 in complex with cyclin A is commercially available (Upstate Biotech, Lake Placid, N.Y.). The HER2 (human epidermal growth factor receptor-2) construct contains a polyhistidine tag at the N-terminus followed by 24 additional amino acids and begins at amino acid 676 followed by the remainder of the HER2 cytoplasmic domain.

Another assay addresses T2, VEGF-R2 kinase (Rattus norvegicus, UniProt O08775).
T2 construct: 6xHis (polyhistidine) (N)
The experiment in a line: VEGF-R2 Kinase Screening Assay. In kind it is biochemical. As to conditions: 10 μM ATP; rat VEGF-R2 kinase domain; read-out: IC50 (μM) VEGFR. How it is done: A kinase reaction mixture was prepared containing 50 mM Tris-HCl pH=8, 10 mM MgCl2, 0.1 mM Na3PO4, 1 mM DTT, 10 μM ATP, 0.025 μM biotinylated peptide substrate and 0.8 μCuries per well ^33P-γ-ATP (2000-3000 Ci/mmol). 70 μL of the kinase reaction mixture was dispensed into each well of a streptavidin coated FlashPlate™ (Cat. # SMP103, NEN, Boston, Mass.). Then 1 μL of test compound stock in 100% DMSO was added to the wells resulting in a final concentration of 1% DMSO in the reaction with a 100 μL final reaction volume. Next, soluble rat tyrosine kinase containing an N-terminal 6×HIS tag was diluted in 50 mM Tris-HCl pH=8.0, 0.1% BSA at a concentration of 5 ng per μL and 30 μL (150 ng enzyme per test well) was added to each well to initiate the reaction. The reaction was incubated for one hour at 30° C. At the end of the 1 h incubation, the reaction was terminated by aspirating the reaction mixture from the plate and washing the wells twice with PBS containing 100 mM EDTA. The PLC1 biotinylated peptide substrate became immobilized on the Flashplate™ and the incorporation of ^33P-γ-ATP was measured by reading the plate on a scintillation counter. Inhibition of the enzymatic activity of the VEGF-R2 kinase was measured by observing a reduced amount of ^33P-γ-ATP incorporated into the immobilized peptide.
as §1

The target of a further assay is T3, HER2 (Homo sapiens, UniProt P04626).
T3 construct: polyhistidine (N)
The experiment in a line: HER2 Kinase Screening Assay. In kind it is biochemical. As to conditions: 10 μM ATP; >10 or >100 = less than 50% inhibition at highest concentration tested. As for the experimental part: The HER2 kinase assay was carried out as described above for the VEGF-R kinase assay except that the enzyme was replaced with a human epidermal growth factor receptor-2 (HER2) construct contains a polyhistidine tag at the N-terminus followed by 24 additional amino acids and begins at amino acid 676 (Accession #M11730) followed by the remainder of the HER2 cytoplasmic domain.
as §1

The subject of assay [1] is HeLa cervical adenocarcinoma. The experiment in a line: Inhibition of cell proliferation (14C-thymidine incorporation), HeLa. In kind it is cell-based. How it is done:
(§2) The ability of a test compound to inhibit the proliferation of cell growth was determined by measuring incorporation of ^14C-labelled thymidine into newly synthesized DNA within the cells. This method was used on cell lines derived from carcinomas originating from several tissues such as HeLa cervical adenocarcinoma (American Type Culture Collection (ATCC), Virginia, Cat. #CCL-2), A375 malignant melanoma (ATCC CRL-1619), and HCT-116 colon carcinoma (CCL-247). In this way the effect of a compound on cell growth of cells with many different phenotypes can be determined. Cells were trypsinized and counted and 3000-8000 cells were added to each well of a 96-well CytoStar tissue culture treated scintillating microplate (Amersham #RPNQ0160) in complete medium in a volume of 100 μl. Cells were incubated for 24 hours in complete medium at 37° C. in an atmosphere containing 5% CO2.
(§3) Next, 1 μl of test compound in 100% DMSO was added to the wells of the plate. DMSO only was added to control wells. Cells were incubated for 24 more hours in complete medium at 37° C. in an atmosphere containing 5% CO2. Methyl ^14C-thymidine 56 mCi/mmol (NEN #NEC568 or Amersham #CFA532) was diluted in complete medium and 0.2 uCi/well was added to each well of the CytoStar plate in a volume of 20 ul. The plate was incubated for 24 hours at 37° C. plus 5% CO2 in drug plus ^14C-thymidine. The contents of the plate were discarded into a ^14C radioactive waste container by inverting the plate and the plate was washed twice with 200 μl PBS.
(§4) 200 μl of PBS was added to each well. The top of the plate was sealed with a transparent plate sealer and a white plate backing sealer (Packard #6005199) was applied to the bottom of the plate. The degree of methyl ^14C-thymidine incorporation was quantified on a Packard Top Count.

Another assay concerns HCT-116 colon carcinoma. The experiment in a line: Inhibition of cell proliferation (14C-thymidine incorporation), HCT116. It is filed as cell-based, human. How it is done: as §2, §3, §4
A general note: Uptake of a labelled nucleoside into DNA is a usual measure of proliferation.

T1 sequence (P06493 whole entry): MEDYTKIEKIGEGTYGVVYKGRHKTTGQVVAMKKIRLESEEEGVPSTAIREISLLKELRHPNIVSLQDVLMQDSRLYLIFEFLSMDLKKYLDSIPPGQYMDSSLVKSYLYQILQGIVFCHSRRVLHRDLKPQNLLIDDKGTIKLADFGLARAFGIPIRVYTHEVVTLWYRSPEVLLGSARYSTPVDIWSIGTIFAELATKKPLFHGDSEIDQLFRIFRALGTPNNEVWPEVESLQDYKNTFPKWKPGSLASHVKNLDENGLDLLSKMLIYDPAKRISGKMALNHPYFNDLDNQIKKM
T1 sequence (P14635 whole entry partner): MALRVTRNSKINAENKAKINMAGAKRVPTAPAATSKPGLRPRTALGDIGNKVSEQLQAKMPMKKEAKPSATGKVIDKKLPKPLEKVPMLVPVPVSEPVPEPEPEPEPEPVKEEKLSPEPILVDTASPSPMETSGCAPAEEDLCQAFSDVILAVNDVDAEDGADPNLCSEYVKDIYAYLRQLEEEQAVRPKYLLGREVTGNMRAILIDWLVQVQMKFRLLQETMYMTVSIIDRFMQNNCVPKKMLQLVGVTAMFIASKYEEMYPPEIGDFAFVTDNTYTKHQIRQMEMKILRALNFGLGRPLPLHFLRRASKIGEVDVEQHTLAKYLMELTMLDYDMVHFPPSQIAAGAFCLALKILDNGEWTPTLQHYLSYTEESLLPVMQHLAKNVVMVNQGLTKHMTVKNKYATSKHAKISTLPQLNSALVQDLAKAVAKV
T2 sequence (O08775 786-1343): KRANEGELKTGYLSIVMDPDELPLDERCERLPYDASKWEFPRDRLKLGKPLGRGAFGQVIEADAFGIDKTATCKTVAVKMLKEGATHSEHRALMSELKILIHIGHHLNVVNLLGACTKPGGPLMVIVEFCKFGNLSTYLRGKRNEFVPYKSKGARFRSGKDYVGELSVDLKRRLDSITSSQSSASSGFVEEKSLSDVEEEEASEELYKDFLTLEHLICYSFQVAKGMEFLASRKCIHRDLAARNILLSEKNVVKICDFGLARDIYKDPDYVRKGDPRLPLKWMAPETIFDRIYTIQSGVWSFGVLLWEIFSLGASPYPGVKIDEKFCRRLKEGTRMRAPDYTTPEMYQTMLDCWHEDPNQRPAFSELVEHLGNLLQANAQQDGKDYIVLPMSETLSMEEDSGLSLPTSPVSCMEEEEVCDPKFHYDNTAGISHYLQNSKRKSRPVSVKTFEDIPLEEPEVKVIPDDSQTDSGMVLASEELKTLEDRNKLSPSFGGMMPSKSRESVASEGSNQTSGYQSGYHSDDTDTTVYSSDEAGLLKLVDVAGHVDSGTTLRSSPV

For the molecule “4-[5-amino-1-(2,6-difluoro-benzoyl)-1H-[1,2,4]triazol-3-ylamino]-N-propionyl-benzenesulfonamide [Compound 20]”, the IC50 was 1.82 µM at CDK1:Cyclin-B; 1 µM at VEGF-R2 kinase; at least 10 µM at HER2; 58.8 µM in assay [1]; over 10 µM in the assay on HCT-116 colon carcinoma.
In the case of `Nc1nc(Nc2ccc(S(=O)(=O)NC(=O)CCC(=O)O)cc2)nn1C(=O)c1c(F)cccc1F` [Compound 1, 4-{4-[5-amino-1-(2,6-difluoro-benzoyl)-1H-[1,2,4]triazol-3-ylamino]-benzenesulfonylamino}-4-oxo-butyric acid], the IC50 is 0.49 µM on CDK1:Cyclin-B; 1.66 µM at VEGF-R2 kinase; at least 10 µM against HER2; 31.9 µM in assay [1] (Homo sapiens); over 100 µM in the assay on HCT-116 colon carcinoma (Homo sapiens, HCT-116).
The matching figures for `NCC(=O)NS(=O)(=O)c1ccc(Nc2nc(N)n(C(=O)c3c(F)cccc3F)n2)cc1` [Compound 2, N-(2-amino-acetyl)-4-[5-amino-1-(2,6-difluoro-benzoyl)-1H-[1,2,4]triazol-3-ylamino]-benzenesulfonamide]: 1.07 µM, 1.97 µM, at least 10 µM, 14.9 µM and 37 µM.
The matching figures for `COCCOCC(=O)NS(=O)(=O)c1ccc(Nc2nc(N)n(C(=O)c3c(F)cccc3F)n2)cc1` [Compound 3, 4-[5-amino-1-(2,6-difluoro-benzoyl)-1H-[1,2,4]triazol-3-ylamino]-N-[2-(2-methoxy-ethoxy)-acetyl]-benzenesulfonamide]: 1.66 µM, 2.56 µM, at least 10 µM, over 10 µM and over 10 µM.
In the same order, the values of `Nc1nc(Nc2ccc(S(=O)(=O)NC(=O)Cn3cnnn3)cc2)nn1C(=O)c1c(F)cccc1F` [Compound 4, 4-[5-amino-1-(2,6-difluoro-benzoyl)-1H-[1,2,4]triazol-3-ylamino]-N-(2-tetrazol-1-yl-acetyl)-benzenesulfonamide] are 5.39 µM, 2.34 µM, at least 10 µM, over 100 µM and over 100 µM.
On to `CN1CCN(CCC(=O)NS(=O)(=O)c2ccc(Nc3nc(N)n(C(=O)c4c(F)cccc4F)n3)cc2)CC1` [Compound 5, 4-[5-amino-1-(2,6-difluoro-benzoyl)-1H-[1,2,4]triazol-3-ylamino]-N-[3-(4-methyl-piperazin-1-yl)-propionyl]-benzenesulfonamide], for which the IC50 at CDK1:Cyclin-B was 1.34 µM; at VEGF-R2 kinase, 1.88 µM; on HER2, at least 10 µM; in assay [1] (Homo sapiens), over 100 µM; with HCT-116 colon carcinoma (Homo sapiens, HCT-116) it was over 10 µM.
As for `CN(C)CC(=O)NS(=O)(=O)c1ccc(Nc2nc(N)n(C(=O)c3c(F)cccc3F)n2)cc1` [Compound 6, 4-[5-amino-1-(2,6-difluoro-benzoyl)-1H-[1,2,4]triazol-3-ylamino]-N-(2-dimethylamino-acetyl)-benzenesulfonamide], the IC50 against CDK1:Cyclin-B is 2.13 µM; on VEGF-R2 kinase, 1.22 µM; on HER2, at least 10 µM; in assay [1] (Homo sapiens), over 10 µM; with HCT-116 colon carcinoma (Homo sapiens, HCT-116), over 10 µM.
As to `Nc1nc(Nc2ccc(S(=O)(=O)NC(=O)CCN3CCOCC3)cc2)nn1C(=O)c1c(F)cccc1F` [Compound 7, 4-[5-amino-1-(2,6-difluoro-benzoyl)-1H-[1,2,4]triazol-3-ylamino]-N-(3-morpholin-4-yl-propionyl)-benzenesulfonamide], the IC50 against CDK1:Cyclin-B is 1.55 µM; on VEGF-R2 kinase, 1.65 µM; at HER2, over 100 µM; in assay [1] (Homo sapiens) it was 20.9 µM; in the assay on HCT-116 colon carcinoma (Homo sapiens, HCT-116) it was 50.8 µM.
In the same order, the values of `CCOC(=O)CCC(=O)NS(=O)(=O)c1ccc(Nc2nc(N)n(C(=O)c3c(F)cccc3F)n2)cc1` [Compound 8, 4-{4-[5-amino-1-(2,6-difluoro-benzoyl)-1H-[1,2,4]triazol-3-ylamino]-benzenesulfonylamino}-4-oxo-butyric acid ethyl ester] are 0.47 µM, 0.47 µM, 1.23 µM, 60.2 µM and 40.1 µM.
The matching figures for `COCCOCCOCC(=O)NS(=O)(=O)c1ccc(Nc2nc(N)n(C(=O)c3c(F)cccc3F)n2)cc1` [Compound 9, 4-[5-amino-1-(2,6-difluoro-benzoyl)-1H-[1,2,4]triazol-3-ylamino]-N-{2-[2-(2-methoxy-ethoxy)-ethoxy]-acetyl}-benzenesulfonamide]: 4.69 µM, at least 100 µM, over 100 µM, over 10 µM and over 100 µM.
The matching figures for `COCCOCCOCC(=O)Nc1nc(Nc2ccc(S(N)(=O)=O)cc2)nn1C(=O)c1c(F)cccc1F` [Compound 10, N-[2-(2,6-difluoro-benzoyl)-5-(4-sulfamoyl-phenylamino)-2H-[1,2,4]triazol-3-yl]-2-[2-(2-methoxy-ethoxy)-ethoxy]-acetamide]: 2.55 µM, 1.76 µM, over 100 µM, over 100 µM and over 100 µM.
Take `Nc1nc(Nc2ccc(S(=O)(=O)NC(=O)CCCC(=O)O)cc2)nn1C(=O)c1c(F)cccc1F` [Compound 11, 5-{4-[5-amino-1-(2,6-difluoro-benzoyl)-1H-[1,2,4]triazol-3-ylamino]-benzenesulfonylamino}-5-oxo-pentanoic acid]: the IC50 against CDK1:Cyclin-B is 12.4 µM; at VEGF-R2 kinase it was 2.77 µM; against HER2 it was over 100 µM; in assay [1] (Homo sapiens), over 100 µM; in the assay on HCT-116 colon carcinoma (Homo sapiens, HCT-116), over 100 µM.

Usually IC50 stands for the concentration needed to halve the response being measured.
